Source: patent US8921376B2, “Pyrrolopyridines useful as inhibitors of protein kinase” (Vertex Pharmaceuticals Incorporated, priority 2005, dated 2014)

Assays:
Format in all cases: biochemical
[1] = molecular target: ROCK I (Homo sapiens, UniProt Q13464); assay: ROCK-I inhibition assay (radioactive enzyme assay, MBP substrate)
Outline: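 Human ROCK at 5 nM phosphorylated 27 μM myelin basic protein with 13 μM [γ-33P]ATP (final) in HEPES pH 7.5, MgCl2, NaCl, DTT and 1.5% DMSO. Reactions ran 2 h at room temperature before TCA quench and filter-plate scintillation counting. After background subtraction, data were fit to give Ki(app).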

[2] = molecular target: JAK2 (Homo sapiens, UniProt O60674); assay: JAK2 inhibition assay (as Example 3 with JAK-2 enzyme)
Outline: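 Radiometric JAK2 kinase assay: poly(Glu)4Tyr substrate at final 15 μM, ATP at final 12 μM with [33P]; buffer 100 mM HEPES pH 7.4, 1 mM DTT, 10 mM MgCl2, 25 mM NaCl, 0.01% BSA. 20 min at 25 °C, TCA-stopped, 33P incorporation counted after filter capture.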

[3] = molecular target: T1, JAK3 (Homo sapiens, UniProt P52333); assay: JAK3 inhibition assay (33P incorporation into poly(Glu)4Tyr)
T1 sequence (P52333 1-1124): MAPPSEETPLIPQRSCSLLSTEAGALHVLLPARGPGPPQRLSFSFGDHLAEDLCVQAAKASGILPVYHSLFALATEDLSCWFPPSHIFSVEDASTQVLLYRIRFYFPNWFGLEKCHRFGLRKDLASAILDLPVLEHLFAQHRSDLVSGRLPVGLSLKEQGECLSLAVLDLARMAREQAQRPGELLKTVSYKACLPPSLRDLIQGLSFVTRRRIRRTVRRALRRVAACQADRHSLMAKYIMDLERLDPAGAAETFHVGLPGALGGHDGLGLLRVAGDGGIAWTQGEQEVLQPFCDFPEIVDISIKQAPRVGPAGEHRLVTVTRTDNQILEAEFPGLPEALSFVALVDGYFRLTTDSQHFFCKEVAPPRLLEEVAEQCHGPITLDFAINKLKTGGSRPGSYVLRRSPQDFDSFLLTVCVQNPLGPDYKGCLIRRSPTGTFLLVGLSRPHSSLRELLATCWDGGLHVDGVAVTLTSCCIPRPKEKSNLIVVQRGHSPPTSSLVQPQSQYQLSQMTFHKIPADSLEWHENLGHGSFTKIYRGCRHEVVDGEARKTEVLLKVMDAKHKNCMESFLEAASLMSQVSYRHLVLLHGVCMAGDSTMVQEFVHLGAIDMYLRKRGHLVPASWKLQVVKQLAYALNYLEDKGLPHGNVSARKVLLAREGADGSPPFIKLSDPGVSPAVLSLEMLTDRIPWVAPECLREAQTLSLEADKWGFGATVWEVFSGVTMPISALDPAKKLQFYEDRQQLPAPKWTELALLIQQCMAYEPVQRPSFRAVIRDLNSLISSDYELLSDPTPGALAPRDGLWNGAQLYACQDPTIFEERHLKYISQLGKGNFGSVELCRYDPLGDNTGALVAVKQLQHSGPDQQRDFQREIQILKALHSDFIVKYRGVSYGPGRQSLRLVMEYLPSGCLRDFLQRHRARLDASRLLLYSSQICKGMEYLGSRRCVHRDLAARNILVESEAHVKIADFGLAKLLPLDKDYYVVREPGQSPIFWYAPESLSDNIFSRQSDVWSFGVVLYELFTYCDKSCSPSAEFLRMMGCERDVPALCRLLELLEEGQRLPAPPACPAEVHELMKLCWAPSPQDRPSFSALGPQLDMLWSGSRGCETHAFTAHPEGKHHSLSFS
Outline: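 Human JAK3 at 1 nM phosphorylated 1 μM poly(Glu)4Tyr using 5 μM [33P]ATP in HEPES pH 7.4 buffer with MgCl2, DTT and BSA. Reactions ran 20 min at 25° C. and were stopped with TCA. 33P incorporation was measured by scintillation after glass-fiber filter capture.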

[4] = enzyme inhibition, Ki(app), Table 5
[5] = Table 6, enzyme inhibition data (Ki)

Sequence of ROCK I (Q13464 whole entry): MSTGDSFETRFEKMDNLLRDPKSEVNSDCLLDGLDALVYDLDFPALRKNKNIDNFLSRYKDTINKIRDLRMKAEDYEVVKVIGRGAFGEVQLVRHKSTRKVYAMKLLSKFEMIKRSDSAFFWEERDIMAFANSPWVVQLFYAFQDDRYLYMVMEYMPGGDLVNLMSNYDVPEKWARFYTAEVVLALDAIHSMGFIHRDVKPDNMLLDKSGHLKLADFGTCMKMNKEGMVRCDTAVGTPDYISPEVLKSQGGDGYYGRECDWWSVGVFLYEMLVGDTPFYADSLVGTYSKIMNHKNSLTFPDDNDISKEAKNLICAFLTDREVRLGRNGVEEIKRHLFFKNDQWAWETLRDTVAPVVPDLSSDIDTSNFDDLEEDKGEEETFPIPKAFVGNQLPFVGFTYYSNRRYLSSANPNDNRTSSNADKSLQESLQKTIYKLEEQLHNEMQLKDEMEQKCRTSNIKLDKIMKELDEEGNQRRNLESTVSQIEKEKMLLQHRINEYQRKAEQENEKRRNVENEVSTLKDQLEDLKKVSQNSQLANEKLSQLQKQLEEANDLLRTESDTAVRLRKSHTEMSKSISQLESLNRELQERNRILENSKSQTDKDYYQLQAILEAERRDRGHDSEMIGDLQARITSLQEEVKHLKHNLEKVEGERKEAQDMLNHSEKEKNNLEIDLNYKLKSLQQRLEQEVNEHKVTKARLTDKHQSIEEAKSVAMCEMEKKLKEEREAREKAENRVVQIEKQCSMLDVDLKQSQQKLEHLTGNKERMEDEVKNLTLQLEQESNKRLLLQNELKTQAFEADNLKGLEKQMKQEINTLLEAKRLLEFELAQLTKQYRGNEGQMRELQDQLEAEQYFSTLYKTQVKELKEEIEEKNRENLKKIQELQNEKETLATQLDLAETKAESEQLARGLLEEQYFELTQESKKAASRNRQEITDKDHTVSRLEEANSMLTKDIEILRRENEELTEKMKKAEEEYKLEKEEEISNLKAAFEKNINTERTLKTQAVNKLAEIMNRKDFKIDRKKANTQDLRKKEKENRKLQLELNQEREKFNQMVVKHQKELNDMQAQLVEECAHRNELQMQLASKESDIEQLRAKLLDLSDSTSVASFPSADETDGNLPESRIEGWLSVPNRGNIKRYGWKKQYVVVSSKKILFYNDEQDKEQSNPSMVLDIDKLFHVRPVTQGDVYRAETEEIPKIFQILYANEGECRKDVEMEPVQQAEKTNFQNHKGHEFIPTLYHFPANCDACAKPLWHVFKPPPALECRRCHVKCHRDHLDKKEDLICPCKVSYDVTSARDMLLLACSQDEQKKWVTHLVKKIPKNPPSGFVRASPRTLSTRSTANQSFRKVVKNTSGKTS
Sequence of JAK2 (O60674 whole entry): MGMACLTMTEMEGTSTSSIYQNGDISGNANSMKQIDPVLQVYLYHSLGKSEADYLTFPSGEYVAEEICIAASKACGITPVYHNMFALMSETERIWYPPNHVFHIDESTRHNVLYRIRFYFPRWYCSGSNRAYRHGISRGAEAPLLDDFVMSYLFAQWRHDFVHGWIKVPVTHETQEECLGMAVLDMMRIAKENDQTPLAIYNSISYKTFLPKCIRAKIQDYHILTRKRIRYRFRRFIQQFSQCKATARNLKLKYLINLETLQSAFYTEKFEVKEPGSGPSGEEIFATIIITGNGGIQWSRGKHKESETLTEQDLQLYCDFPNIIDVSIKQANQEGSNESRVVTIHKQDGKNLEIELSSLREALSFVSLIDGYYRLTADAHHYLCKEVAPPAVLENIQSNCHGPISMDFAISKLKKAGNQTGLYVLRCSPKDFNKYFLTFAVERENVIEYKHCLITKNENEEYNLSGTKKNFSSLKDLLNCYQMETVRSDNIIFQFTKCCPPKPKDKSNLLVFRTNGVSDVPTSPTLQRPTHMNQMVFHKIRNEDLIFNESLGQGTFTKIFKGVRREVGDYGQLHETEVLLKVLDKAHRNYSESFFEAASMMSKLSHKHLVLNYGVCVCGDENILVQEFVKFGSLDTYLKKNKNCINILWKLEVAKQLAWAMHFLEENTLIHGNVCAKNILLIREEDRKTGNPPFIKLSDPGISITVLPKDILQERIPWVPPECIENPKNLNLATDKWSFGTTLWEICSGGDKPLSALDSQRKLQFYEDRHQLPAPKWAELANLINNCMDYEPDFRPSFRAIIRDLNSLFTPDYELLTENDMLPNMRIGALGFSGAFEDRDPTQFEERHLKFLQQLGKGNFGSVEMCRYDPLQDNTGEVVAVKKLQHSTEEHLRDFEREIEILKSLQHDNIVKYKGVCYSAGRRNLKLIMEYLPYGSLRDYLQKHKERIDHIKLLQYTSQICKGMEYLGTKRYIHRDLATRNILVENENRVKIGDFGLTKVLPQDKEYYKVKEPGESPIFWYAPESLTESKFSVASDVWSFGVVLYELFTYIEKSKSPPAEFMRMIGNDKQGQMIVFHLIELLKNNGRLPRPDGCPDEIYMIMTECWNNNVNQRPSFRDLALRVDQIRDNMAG

Ki [1, 4]	Ki ([2]; enzyme inhibition, Table 5)	Ki ([3]; enzyme inhibition, Table 5)	Ki [1, 5]	Ki [2, 5]	Ki [3, 5]	SMILES
< 500 nM	< 500 nM	< 500 nM	–	–	–	CC(=O)Nc1ccc(-c2ccnc3[nH]ccc23)cc1 [compound 43, N-[4-(1H-Pyrrolo[2,3-b]pyridin-4-yl)-phenyl]-acetamide]
–	–	–	< 500 nM	< 500 nM	< 500 nM	CN(CCC#N)C(=O)c1ccc(-c2ccnc3[nH]ccc23)s1 [compound 322]
–	–	–	< 500 nM	< 500 nM	< 500 nM	C#CCN(C)C(=O)c1ccc(-c2ccnc3[nH]ccc23)s1 [compound 323]
–	–	–	< 500 nM	< 500 nM	< 500 nM	N#CCCNC(=O)c1cc(-c2ccnc3[nH]ccc23)c[nH]1 [compound 296]
–	–	–	500 to 5000 nM	< 500 nM	< 500 nM	CCN(CCO)C(=O)c1cc(-c2c(Cl)cnc3[nH]ccc23)c[nH]1 [compound 345]
–	–	–	< 500 nM	< 500 nM	< 500 nM	CCN(CC)C(=O)c1cc(-c2ccnc3[nH]ccc23)c[nH]1 [compound 262]
–	–	–	< 500 nM	< 500 nM	< 500 nM	CC(C)CNC(=O)c1cc(-c2ccnc3[nH]ccc23)c[nH]1 [compound 291]
–	–	–	> 4000 nM	< 500 nM	< 500 nM	O=C(c1cc(-c2c(Cl)cnc3[nH]ccc23)c[nH]1)N1CCCC1CO (stereo not drawn) [compound 346]
–	–	–	500 to 5000 nM	< 500 nM	< 500 nM	C=CCN(CC=C)C(=O)c1cc(-c2c(F)cnc3[nH]ccc23)c[nH]1 [compound 383]
–	–	–	< 500 nM	< 500 nM	< 500 nM	O=C(c1cc(-c2ccnc3[nH]ccc23)c[nH]1)N1CCCC1C(F)(F)F (stereo not drawn) [compound 374]
–	–	–	< 500 nM	500 to 5000 nM	< 500 nM	O=C(NCC(F)(F)F)c1cccc(-c2ccnc3[nH]ccc23)c1 [compound 251]
–	–	–	< 500 nM	< 500 nM	< 500 nM	O=C(c1cc(-c2c(F)cnc3[nH]ccc23)c[nH]1)N(CC1CC1)CC(F)(F)F [compound 387]
–	–	–	< 500 nM	< 500 nM	< 500 nM	N#CCCN(CC1CC1)C(=O)c1cc(-c2c(F)cnc3[nH]ccc23)c[nH]1 [compound 398]
–	–	–	> 4000 nM	< 500 nM	< 500 nM	CN(CCc1ccccn1)C(=O)c1cc(-c2c(Cl)cnc3[nH]ccc23)c[nH]1 [compound 351]
500 to 5000 nM	> 5000 nM	> 5000 nM	–	–	–	Nc1ccccc1-c1c(Cl)cnc2[nH]ccc12 [compound 129]
–	–	–	500 to 5000 nM	500 to 5000 nM	< 500 nM	NC(=O)C1CCCN1C(=O)c1cc(-c2ccnc3[nH]ccc23)c[nH]1 (stereo not drawn) [compound 368]
–	–	–	> 4000 nM	> 5000 nM	> 5000 nM	Cc1noc(C)c1-c1c(Cl)cnc2[nH]ccc12 [compound 146]
–	–	–	500 to 5000 nM	< 500 nM	< 500 nM	COCCN(CCOC)C(=O)c1cc(-c2ccnc3[nH]ccc23)c[nH]1 [compound 308]
–	–	–	< 500 nM	< 500 nM	< 500 nM	O=C(NC1CCCCC1)c1cc(-c2ccnc3[nH]ccc23)c[nH]1 [compound 288]
–	–	–	< 500 nM	< 500 nM	< 500 nM	O=C(NC1CCCC1)c1cc(-c2ccnc3[nH]ccc23)c[nH]1 [compound 263]

Further lines, the compound ahead of its results:

SMILES	Ki [1, 4]	Ki ([2]; enzyme inhibition, Table 5)	Ki ([3]; enzyme inhibition, Table 5)	Ki [1, 5]	Ki [2, 5]	Ki [3, 5]
Nc1cccc(-c2ccnc3[nH]ccc23)c1 [compound 114, 3-(1H-Pyrrolo[2,3-b]pyridin-4-yl)-phenylamine]	< 500 nM	500 to 5000 nM	500 to 5000 nM	–	–	–
CC(C)c1cccc(-c2ccnc3[nH]ccc23)c1 [compound 109, 4-(3-Isopropyl-phenyl)-1H-pyrrolo[2,3-b]pyridine]	< 500 nM	< 500 nM	< 500 nM	–	–	–
FC(F)(F)c1cccc(-c2ccnc3[nH]ccc23)c1 [compound 113, 4-(3-Trifluoromethyl-phenyl)-1H-pyrrolo[2,3-b]pyridine]	< 500 nM	< 500 nM	500 to 5000 nM	–	–	–
CCc1ccccc1-c1ccnc2[nH]ccc12 [compound 231]	–	–	–	500 to 5000 nM	500 to 5000 nM	500 to 5000 nM
C[C@@H]1CC[C@H](C)N1C(=O)c1csc(-c2ccnc3[nH]ccc23)n1 [compound 417]	–	–	–	< 500 nM	< 500 nM	< 500 nM
CC(C)C[C@@H](CO)Nc1cccc(-c2ccnc3[nH]ccc23)n1 [compound 59, (S)-2-(6-(1H-Pyrrolo[2,3-b]pyridin-4-yl)pyridin-2-ylamino)-4-methylpentan-1-ol]	500 to 5000 nM	> 5000 nM	> 5000 nM	–	–	–
CN1CCN(Cc2cccc(-c3ccnc4[nH]ccc34)c2)CC1 [compound 89, 4-[3-(4-Methyl-piperazin-1-ylmethyl)-phenyl]-1H-pyrrolo[2,3-b]pyridine]	500 to 5000 nM	500 to 5000 nM	500 to 5000 nM	–	–	–
C[C@H](Nc1ccnc(-c2ccnc3[nH]ccc23)n1)C(=O)NCC(F)(F)F [compound 120, (S)-2-(2-(1H-pyrrolo[2,3b]pyridin-4-yl)pyrimidin-4-ylamino)-N-(2,2,2-trifluoroethyl)propanamide]	500 to 5000 nM	500 to 5000 nM	< 500 nM	–	–	–
C1=C(c2ccnc3[nH]ccc23)CCC1 [compound 27, 4-Cyclopentenyl-1H-pyrrolo[2,3b]pyridine]	< 500 nM	< 500 nM	< 500 nM	–	–	–
CC1CC[C@@H](C)N1C(=O)c1csc(-c2ccnc3[nH]ccc23)n1 (stereo partly drawn) [compound 414]	–	–	–	< 500 nM	< 500 nM	< 500 nM
Nc1nc(-c2ccnc3[nH]ccc23)ncc1F [compound 203]	–	–	–	> 4000 nM	500 to 5000 nM	500 to 5000 nM
CC(C)Oc1ccccc1-c1ccnc2[nH]ccc12 [compound 230]	–	–	–	> 4000 nM	500 to 5000 nM	500 to 5000 nM
CSc1ccccc1-c1ccnc2[nH]ccc12 [compound 239]	–	–	–	500 to 5000 nM	500 to 5000 nM	500 to 5000 nM
N#Cc1ccccc1-c1ccnc2[nH]ccc12 [compound 214]	–	–	–	500 to 5000 nM	> 5000 nM	500 to 5000 nM
c1cc(-c2ccnc3[nH]ccc23)nc(N2CCC[C@H]2CN2CCCC2)c1 [compound 54]	500 to 5000 nM	> 5000 nM	> 5000 nM	–	–	–
CCN(CC)c1cccc(-c2ccnc3[nH]ccc23)n1 [compound 52, N,N-Diethyl-6-(1H-pyrrolo[2,3-b]pyridin-4-yl)pyridin-2-amine]	< 500 nM	< 500 nM	< 500 nM	–	–	–
O=C(c1cccc(-c2ccnc3[nH]ccc23)c1)N1CCCCC1 [compound 93, Piperidin-1-yl-[3-(1H-pyrrolo[2,3-b]pyridin-4-yl)-phenyl]-methanone]	500 to 5000 nM	> 5000 nM	500 to 5000 nM	–	–	–
Cn1cc(-c2ccnc3[nH]ccc23)cn1 [compound 111, 4-(1-Methyl-1H-pyrazol-4-yl)-1H-pyrrolo[2,3-b]pyridine]	< 500 nM	< 500 nM	< 500 nM	–	–	–
CCCOc1ccccc1-c1ccnc2[nH]ccc12 [compound 234]	–	–	–	> 4000 nM	> 5000 nM	500 to 5000 nM
O=C(c1cccc(-c2ccnc3[nH]ccc23)c1)N1CCOCC1 [compound 94, Morpholin-4-yl-[3-(1H-pyrrolo[2,3-b]pyridin-4-yl)-phenyl]-methanone]	500 to 5000 nM	500 to 5000 nM	500 to 5000 nM	–	–	–
Clc1cnc2[nH]ccc2c1N[C@@H]1C[C@H]2CC[C@@H]1C2 [compound 150]	–	–	–	< 500 nM	< 500 nM	< 500 nM
Clc1cnc2[nH]ccc2c1NC1CCCCC1 [compound 126, 5-chloro-N-cyclohexyl-1H-pyrrolo[2,3-b]pyridin-4-amine]	< 500 nM	< 500 nM	< 500 nM	–	–	–
